A short description of this series: Evaluation of stability in liver microsome. The following applies: mouse liver microsome 0.25 mg/mL, test compound 1 μM, 37° C., 30 minutes. (In general: Liver microsomes are a subcellular fraction often used to study metabolism.)
On to `COCc1ccc(NC(=O)c2c(C#Cc3csc(C)n3)n(C3(C)CC3)c3ncnc(N)c23)cc1` [Example 126, 4-amino-N-(4-(methoxymethyl)phenyl)-7-(1-methylcyclopropyl)-6-((2-methylthiazol-4-yl)ethynyl)-7H-pyrrolo[2,3-d]pyrimidine-5-carboxamide], for which the “Remaining (%)” value stood at 69%.

With `COCc1ccc(NC(=O)c2c(-c3ccccc3)n(C3(C)CC3)c3ncnc(N)c23)cc1` [Example 154, 4-amino-N-(4-(methoxymethyl)phenyl)-7-(1-methylcyclopropyl)-6-phenyl-7H-pyrrolo[2,3-d]pyrimidine-5-carboxamide], the “Remaining (%)” value turned out to be 50%.

In the case of `COCc1ccc(NC(=O)c2c(C#Cc3c[nH]c4ccccc34)n(C3(C)CC3)c3ncnc(N)c23)cc1` [Example 121, 6-((1H-indol-3-yl)ethynyl)-4-amino-N-(4-(methoxymethyl)phenyl)-7-(1-methylcyclopropyl)-7H-pyrrolo[2,3-d]pyrimidine-5-carboxamide], the “Remaining (%)” value came to 74%.

On to `COCc1ccc(NC(=O)c2cn(C3(C(F)F)CC3)c3ncnc(N)c23)cc1` [Example 46, 4-amino-7-(1-(difluoromethyl)cyclopropyl)-N-(4-(methoxymethyl)phenyl)-7H-pyrrolo[2,3-d]pyrimidine-5-carboxamide], for which the “Remaining (%)” value came out at 65%.

In the case of `COCc1ccc(NC(=O)c2c(C#CCN3CCCC3)n(C3(C)CC3)c3ncnc(N)c23)cc1` [Example 88, 4-amino-N-[4-(methoxymethyl)phenyl]-7-(1-methylcyclopropyl)-6-(3-(pyrrolidin-1-yl)prop-1-yn-1-yl)-7H-pyrrolo[2,3-d]pyrimidine-5-carboxamide], the “Remaining (%)” value was 59%.

`COCc1ccc(NC(=O)c2c(C#Cc3cccc(F)c3)n(C3(C)CC3)c3ncnc(N)c23)cc1` [Example 130, 4-amino-6-((3-fluorophenyl)ethynyl)-N-(4-(methoxymethyl)phenyl)-7-(1-methylcyclopropyl)-7H-pyrrolo[2,3-d]pyrimidine-5-carboxamide]: the “Remaining (%)” value was found to be 84%.

With `COCc1ccc(NC(=O)c2c(C#Cc3cn(C)nc3C)n(C3(C)CC3)c3ncnc(N)c23)cc1` [Example 181, 4-amino-6-((1,3-dimethyl-1H-pyrazol-4-yl)ethynyl)-N-(4-(methoxymethyl)phenyl)-7-(1-methylcyclopropyl)-7H-pyrrolo[2,3-d]pyrimidine-5-carboxamide], the “Remaining (%)” value was 62%.

`COCc1ccc(NC(=O)c2cn(C(C)(C)C)c3ncnc(N)c23)c(OC)c1` [Example 33, 4-amino-7-(tert-butyl)-N-(2-methoxy-4-(methoxymethyl)phenyl)-7H-pyrrolo[2,3-d]pyrimidine-5-carboxamide]: the “Remaining (%)” value turned out to be 57%.

For `COCc1ccc(NC(=O)c2c(C#CC3(O)CCOCC3)n(C3(C)CC3)c3ncnc(N)c23)cc1` [Example 185, 4-amino-6-((4-hydroxytetrahydro-2H-pyran4-yl)ethynyl)-N-(4-(methoxymethyl)phenyl)-7-(1-methylcyclopropyl)-7H-pyrrolo[2,3-d]pyrimidine-5-carboxamide], the “Remaining (%)” value worked out at 80%.

Take `COCc1ccc(NC(=O)c2c(C#CCN3CC[S+]([O-])CC3)n(C3(C)CC3)c3ncnc(N)c23)cc1` [Example 178, 4-amino-N-(4-(methoxymethyl)phenyl)-7-(1-methylcyclopropyl)-6-(3-(1-oxidethiomorpholino)prop-1-yn-1-yl)-7H-pyrrolo[2,3-d]pyrimidine-5-carboxamide]: the “Remaining (%)” value is recorded as 88%.

As for `COCc1ccc(NC(=O)c2c(OC)n(C3(C)CC3)c3ncnc(N)c23)cc1` [Example 57, 4-amino-6-methoxy-N-[4-(methoxymethyl)phenyl]-7-(1-methylcyclopropyl)-7H-pyrrolo[2,3-d]pyrimidine-5-carboxamide], the “Remaining (%)” value is reported as 86%.

`COCc1ccc(NC(=O)c2c(OCC(C)(C)OC)n(C3(C)CC3)c3ncnc(N)c23)cc1` [Example 137, 4-amino-6-(2-methoxy-2-methylpropoxy)-N-(4-(methoxymethyl)phenyl)-7-(1-methylcyclopropyl)-7H-pyrrolo[2,3-d]pyrimidine-5-carboxamide]: the “Remaining (%)” value amounted to 53%.

As for `COCc1ccc(NC(=O)c2cn(C3(C)CC3)c3ncnc(N)c23)cc1` [Example 36, 4-amino-N-(4-(methoxymethyl)phenyl)-7-(1-methylcyclopropyl)-7H-pyrrolo[2,3-d]pyrimidine-5-carboxamide], the “Remaining (%)” value was 73%.

Consider `COCc1ccc(NC(=O)c2c(C#CC3(O)CCCC3)n(C3(C)CC3)c3ncnc(N)c23)cc1` [Example 131, 4-amino-6-((1-hydroxycyclopentyl)ethynyl)-N-(4-(methoxymethyl)phenyl)-7-(1-methylcyclopropyl)-7H-pyrrolo[2,3-d]pyrimidine-5-carboxamide], for which the “Remaining (%)” value was 55%.

`COCc1ccc(NC(=O)c2c(C#CC3(O)CCOC3)n(C3(C)CC3)c3ncnc(N)c23)cc1` (stereo not drawn) [Example 177, 4-amino-6-((3-hydroxytetrahydrofuran-3-yl)ethynyl)-N-(4-(methoxymethyl)phenyl)-7-(1-methylcyclopropyl)-7H-pyrrolo[2,3-d]pyrimidine-5-carboxamide]: the “Remaining (%)” value came to 72%.

As to `COCc1ccc(NC(=O)c2c(C#Cc3ccc(OC)nc3)n(C3(C)CC3)c3ncnc(N)c23)cc1` [Example 192, 4-amino-N-(4-(methoxymethyl)phenyl)-6-((6-methoxypyridin-3-yl)ethynyl)-7-(1-methylcyclopropyl)-7H-pyrrolo[2,3-d]pyrimidine-5-carboxamide], the “Remaining (%)” value is given as 79%.

Take `COCc1ccc(NC(=O)c2c(C)n(C(C)(C)C)c3ncnc(N)c23)cc1` [Example 60, 4-amino-7-(tert-butyl)-N-(4-(methoxymethyl)phenyl)-6-methyl-7H-pyrrolo[2,3-d]pyrimidine-5-carboxamide]: the “Remaining (%)” value is listed as 81%.

Take `Nc1ncnc2c1c(C(=O)Nc1ccc(Oc3ccccc3)cc1)cn2C1CCCC1` [Compound 2 of Comparative Examples, 4-amino-7-cyclopentyl-N-(4-phenoxyphenyl)-7H-pyrrolo[2,3-d]pyrimidine-5-carboxamide, reference compound]: the “Remaining (%)” value is listed as 0%.

Turning to `COCc1ccc(NC(=O)c2c(C#CCC3(O)CCOCC3)n(C3(C)CC3)c3ncnc(N)c23)cc1` [Example 143, 4-amino-6-(3-(4-hydroxytetrahydro-2H-pyran-4-yl)prop-1-yn-1-yl)-N-(4-(methoxymethyl)phenyl)-7-(1-methylcyclopropyl)-7H-pyrrolo[2,3-d]pyrimidine-5-carboxamide], the “Remaining (%)” value was 68%.

Regarding `COCc1ccc(NC(=O)c2c(C#CCN3CCOCC3)n(C3(C)CC3)c3ncnc(N)c23)cc1F` [Example 206, 4-amino-N-(3-fluoro-4-(methoxymethyl)phenyl)-7-(1-methylcyclopropyl)-6-(3-morpholinoprop-1-yn-1-yl)-7H-pyrrolo[2,3-d]pyrimidine-5-carboxamide], the “Remaining (%)” value is reported as 77%.

With `COCc1ccc(NC(=O)c2c(-c3cccnc3)n(C3(C)CC3)c3ncnc(N)c23)cc1` [Example 61, 4-amino-N-(4-(methoxymethyl)phenyl)-7-(1-methylcyclopropyl)-6-(pyridin-3-yl)-7H-pyrrolo[2,3-d]pyrimidine-5-carboxamide], the “Remaining (%)” value was 81%.

For the origin of these results see patent US10807986B2, “Fused pyrimidine compound or salt thereof” (TAIHO PHARMACEUTICAL CO., LTD., priority 2016, dated 2020).
